The test system of series [1] is existing sprouts on post-dormant potatoes with peeps and sprouts extant. Put plainly: Comparison of thermofogged sprout suppressing chemicals for "burn" of existing sprouts (Example IV). In kind it is in vivo. As to conditions: for Burn “old”: effect upon old sprouts, up to nine months old; for Burn “old” / Burn “new”: thermofogged at comparable dosages; for Burn “new”: newly emerged sprouts and peeps, generally less than a month. Set-up: key to Burn “old” / Burn “new”: +: indicates fair effectiveness; ++: indicates good effectiveness; +++: indicates excellent effectiveness; A minus (−) sign indicates no noticeable effect; a +/− sign indicates only partial effectiveness at a minimal level. As to the method:
Various sprout suppressing chemicals were compared for their ability to suppress existing sprouts on post-dormant potatoes with peeps and sprouts extant. […] Clove oil applied at a predetermined dosage gave a “burn” effectiveness of 46% of existing peeps while 1-nonanol at a dosage one-fourth as great gave a 50% “burn.” At a one-half dosage, 1-nonanol provided a 100% “burn” effectiveness within 24 hours after treatment. In the above table “Burn old” refers to the effect upon old sprouts, which included sprouts up to nine months old, these being generally more difficult to desiccate, while “burn new” refers to newly emerged sprouts and peeps, generally less than a month or so in existence.

In the next series the test system is potatoes. Briefly: 1-octanol thermofog on cold versus 53° F. potatoes, condensation damage (Example V). In kind it is in vivo. On the procedure: An experiment was performed wherein 1-octanol at various dosages were applied to potatoes wherein the temperature of the potatoes was at about 36° F. The 1-octanol was applied via an electric thermofogger at a fog temperature within the fogger of about 500° F. to obtain a stable aerosol. The potatoes were examined about 24 hours after treatment. […] The potatoes were cut open at the dark spots. Damage to the flesh of the potatoes existed to a depth of about 5 mm to 25 mm. Potato flesh was otherwise undamaged except under the dark spots.

In another series the test system is stored potatoes. To be noted: continuous vapors by wicking over an extended period; cited from earlier work.
Series [2] relates to peeps and sprouts on stored potatoes. Briefly: Thermofog treatment of stored potatoes with 1-nonanol to determine sprout destruction (Example II). It is filed as in vivo. As to the method: Stored potatoes in a small open container were treated with 1-nonanol (n-nonyl alcohol) via a thermofogger to determine sprout destruction. The thermofogger was operated at an aerosol chamber temperature of about 500° F. A good stable aerosol was produced. The alcohol was applied at a dosage of 8 ml for 2 kg of potatoes. The system was open so that the actual dosage reaching the potatoes was considerably less than the fogged amount. The potatoes were exposed to the thermofog for approximately one minute, after which the treatment containers (1-gallon bottles) were sealed and held at 53° F. for 24 hours before being connected to normal storage ventilation. In a first test the potatoes had white “peeps” showing from the eyes before treatment. […] In a second test the potatoes were treated with 1-nonanol at the same fogging temperature and dosage for the same period of time to achieve the same application dosage as in Example I. The potatoes in this storage had sprouts averaging in excess of about 2 cm in length. In this experiment, potatoes with very long sprouts, some up to eight cm or more, were treated with 1, 2, and 4 times sequentially with full strength nonanol. […] This “spray-paint” method was thus used to try to bring the total amount (rate) of nonanol up to a level capable of killing large sprouts as well as peeps, a necessity in commercial settings where sprouts of all sizes exist. It required 4 applications to reach the level at which these large sprouts were completely killed. […] While this was a small scale test, a whole storage full of potatoes in this condition would likely lead to secondary decays. Single or even double applications didn't reach a level of nonanol high enough to completely kill these large-sized sprouts.

Another series concerns peeps and sprouts. Briefly: Fogging of 1-nonanol versus clove oil, "burning" peeps and sprouts (Example III). In kind it is in vivo, potatoes. To be noted: short duration, similar dosages.

For the compound `CCCCCCO` [Hexanol], in series [1], the “Burn “old”” value is listed as “+” and the “Burn “new”” value was “++”.

Regarding `CCCCCCCCO` [1-Octanol, 1-octanol], in series [1], the “Burn “old”” value is recorded as “++” and the “Burn “new”” value was “+++”. Besides, in the series with potatoes (potato, in vivo, 24 h), the “depth of damage to the flesh at the dark spots” value is 5-25 mm. In addition, the “condition of potato skin” value with potatoes (potatoes at about 36° F., examined about 24 hours after treatment) was “large dark damaged spots”. Moreover, the “injury to potato skin or flesh” value with potatoes (potatoes held at 53° F., similar dosage, fogging temperature and rate) was “did not show injury to the potato skin or to its flesh”.

On to `CCCCCOC(C)=O` [AmylAcetate, reference compound], for which the “Burn “new”” value in series [1] is recorded as “++”.

`CCCCCCCCCCCCO` [Dodecanol]: in series [1], the “Burn “old”” value is recorded as “−\+” and the “Burn “new”” value is listed as “−”.

Regarding `CC(CCO)CC(C)(C)C` (centres unmarked) [3,5,5-trimethyl hexanol], in the series with stored potatoes, the “damage to potato flesh” value is given as “damaged potato flesh, especially near affected eyes” and the “effect on existing sprouts” value is “strongly “burned” (desiccated) existing sprouts”.

Take `CCCCCCCCCCO` [1-Decanol, 1-decanol]: in series [1], the “Burn “old”” value is given as “++” and the “Burn “new”” value is “++”.

With `CCCCCCCCCO` [1-Nonanol, 1-nonanol], in series [2] (first test, 8 ml for 2 kg of potatoes fogged, open system, inspected about 24 hours after treatment), the “effect on white “peeps”” value is “burned to a dark color and were inactivated”. Moreover, the “damage to potato flesh adjacent the eyes” value in series [2] (first test, about 24 hours after treatment) is listed as “without any damage to potato flesh adjacent the eyes”. For the same compound, in series [2] (second test, 4 applications on large sprouts), the “negative side effect observed” value is on record as “wet, slimy, sprout rot”. The “applications required to completely kill large sprouts” value in series [2] (second test, sprouts up to eight cm or more, sequential full strength applications) is on record as 4 applications. Moreover, the “effectiveness in “burning” peeps and sprouts relative to clove oil” value in the series with peeps and sprouts is listed as “about four times as effective as clove oil”. Moreover, the ““burn” effectiveness of existing peeps” value is listed as 50% in series [1] (dosage one-fourth as great as the clove oil dosage) and 100% in series [1] (one-half dosage, within 24 hours after treatment). Also, the “Burn “old”” value in series [1] is on record as “+++”. The “Burn “new”” value in series [1] is “+++”.
